Laboratory results as given in patent US12569499B2, “Intravenous formulations of RK-33” (NATSAR PHARMACEUTICALS, INC., priority 2021, dated 2026).
Values after ≈ are worked out from the molar mass of the structure shown.

How the values were obtained:
[1] = Formulation appearance (color, visual precipitation, clarity); assay type: physicochemical; conditions: with 50% PEG 200 and 4% HPβCD
Experimental: RK-33 formulations comprising of various combinations of solvents and polymers were prepared and analyzed for color, visual precipitation and clarity.
Formulations comprising of various combinations of solvents and polymers were prepared with an intralipid emulsion used to provide calories to patients who receive an injection into the vein. The prepared formulations were then analyzed for color, visual precipitation and clarity.
Formulations comprising of various combinations of solvents and polymers, including Captisol®, were prepared. The formulations were analyzed for color, visual precipitation and clarity.

tumor cells = conditions: sarcoma, breast, prostate, colorectal, lung, medulloblastoma; cited from earlier work
[2] = Qualitative solubility of RK-33 in various solubilizers; assay type: physicochemical; conditions: for solubility: thermodynamic from solid
Experimental: The degree of solubility of RK-33 in various solubilizers were tested. RK-33 was added to the solubilizer and observed for formation of homogenous molecular dispersion and physical appearance.

DDX3 = DDX3 (Homo sapiens, UniProt O00571); conditions: Oncogene 27(28): 3912-3922 (2008); cited from earlier work
Chain of DDX3 (O00571 whole entry): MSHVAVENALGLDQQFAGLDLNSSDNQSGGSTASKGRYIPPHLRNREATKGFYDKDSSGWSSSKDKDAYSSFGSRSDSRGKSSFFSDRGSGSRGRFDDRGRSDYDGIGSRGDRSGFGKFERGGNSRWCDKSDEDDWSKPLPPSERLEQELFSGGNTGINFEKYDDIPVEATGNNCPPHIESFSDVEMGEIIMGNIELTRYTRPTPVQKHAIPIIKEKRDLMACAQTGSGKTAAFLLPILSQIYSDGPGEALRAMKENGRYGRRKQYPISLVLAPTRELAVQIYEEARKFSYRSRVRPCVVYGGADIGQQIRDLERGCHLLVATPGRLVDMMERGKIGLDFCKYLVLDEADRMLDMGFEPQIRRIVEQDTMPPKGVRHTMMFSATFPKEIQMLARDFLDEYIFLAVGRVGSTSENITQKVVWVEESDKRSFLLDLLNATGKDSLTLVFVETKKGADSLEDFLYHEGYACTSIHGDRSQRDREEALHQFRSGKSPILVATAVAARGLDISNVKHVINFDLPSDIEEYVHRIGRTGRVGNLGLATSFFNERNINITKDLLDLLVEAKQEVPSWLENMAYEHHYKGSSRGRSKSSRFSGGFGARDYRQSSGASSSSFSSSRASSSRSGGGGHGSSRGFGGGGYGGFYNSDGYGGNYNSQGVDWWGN

COc1ccc(Cn2c3ncnc4c(ncn4Cc4ccc(OC)cc4)c-3nc2=O)cc1 [RK-33]
RK-33 formulation concentration achieved [1]: 2.5 mg/mL
Inhibiting the growth of tumor cells (tumor cells): effective results in inhibiting the growth of tumor cells
solubility ([2]; aqueous buffer, solvent Water (pH 4)): < 1000 µg/mL
solubility ([2]; aqueous buffer, solvent Water (pH 8)): < 1000 µg/mL
solubility ([2]; aqueous buffer, solvent Water (pH 10)): < 1000 µg/mL
solubility ([2]; oil or lipid, solvent Corn oil): < 1000 µg/mL
solubility ([2]; oil or lipid, solvent Gelucire 44/14): < 1000 µg/mL
solubility ([2]; oil or lipid, solvent Labrafil 1944CS): < 1000 µg/mL
solubility ([2]; oil or lipid, solvent Miglyol 810): < 1000 µg/mL
solubility ([2]; oil or lipid, solvent Oleic acid): < 1000 µg/mL
solubility ([2]; oil or lipid, solvent Olive oil): < 1000 µg/mL
solubility ([2]; organic solvent or mixture, solvent Benzyl alcohol): > 250000 µg/mL
solubility ([2]; organic solvent or mixture, solvent DMA): > 100000 µg/mL
solubility ([2]; organic solvent or mixture, solvent DMSO): > 100000 µg/mL
solubility ([2]; organic solvent or mixture, solvent Ethanol): < 1000 µg/mL
solubility ([2]; organic solvent or mixture, solvent Glycerin): < 1000 µg/mL
solubility ([2]; organic solvent or mixture, solvent Glycerol formal): > 75000 µg/mL
solubility ([2]; organic solvent or mixture, solvent NMP): > 100000 µg/mL
solubility ([2]; organic solvent or mixture, solvent PEG 200): ~12000 µg/mL (≈ 28000 µM)
solubility ([2]; organic solvent or mixture, solvent PEG300): ~10000 µg/mL (≈ 23300 µM)
solubility ([2]; organic solvent or mixture, solvent PEG 400): 5000 to 10000 µg/mL (≈ 11700 to 23300 µM)
solubility ([2]; organic solvent or mixture, solvent PG): 1000 to 5000 µg/mL (≈ 2330 to 11700 µM)
solubility ([2]; simulated gastric fluid, solvent Water (pH 1.6)): < 1000 µg/mL
Observation ([2]; solvent Benzyl alcohol): Clear, yellow colored solution
Observation ([2]; solvent Corn oil): Dispersion
Observation ([2]; solvent DMA): Clear, yellow colored solution
Observation ([2]; solvent DMSO): Clear, yellow colored solution
Observation ([2]; solvent Ethanol): Yellow dispersion
Observation ([2]; solvent Gelucire 44/14): Dispersion
Observation ([2]; solvent Glycerin): Dispersion
Observation ([2]; solvent Glycerol formal): Clear, yellow colored solution
Observation ([2]; solvent Labrafil 1944CS): Dispersion
Observation ([2]; solvent Miglyol 810): Dispersion
Observation ([2]; solvent NMP): Clear, yellow colored solution
Observation ([2]; solvent Oleic acid): Dispersion
Observation ([2]; solvent Olive oil): Dispersion
Observation ([2]; solvent PEG 200): Clear, yellow colored solution
Observation ([2]; solvent PEG300): Clear, yellow colored solution
Observation ([2]; solvent PEG 400): Clear, yellow colored solution
Observation ([2]; solvent PG): Clear, yellow colored solution
Observation ([2]; solvent Water): Poor wettability
Observation ([2]; solvent Water (pH 1.6)): Poor wettability
Observation ([2]; solvent Water (pH 4)): Poor wettability
Observation ([2]; solvent Water (pH 8)): Poor wettability
Observation ([2]; solvent Water (pH 10)): Poor wettability
solubility ([2]; solvent Water): < 1000 µg/mL
Effect of targeting DDX3 on cells (DDX3): promotes cell death
